Each compound was assayed on NIT-1 cells (assay: CRISPR/Cas9 whole-genome loss-of-function (LOF) screen: GeCKO library-A infected NIT-1 cells transplanted into NOD.scid mouse with diabetic NOD splenocytes, gRNA sequencing of surviving graft). Details: surviving NIT-1 graft of one NOD.scid mouse, ~60 days, severely hyperglycemic; mini-seq.
Format: in vivo
Source text: A series of tools to run a CRISPR/Cas9 mediated whole-genome loss-of-function (LOF) screen were developed. The GeCKO V2 lentiviral pooled library was used that comprises guide RNAs (gRNAs) against every gene (Addgene, targeting >20,000 genes with 6 gRNAs/gene). This library was split into two sub-libraries (A and B), which each cover all targeted genes with 3 gRNAs/gene. These libraries cover the entire coding genome to potentially mutate every gene and also contain >1000 non-targeting gRNAs as internal negative controls. In the GeCKO library, Cas9 and gRNAs were incorporated into a single lentiviral vector to introduce these gene-targeting elements into beta cells by lentiviral infection.
A high-stringency LOF screen was done using a single mouse. In this model, 10^7 GeCKO library-A infected NIT-1 cells (multiplicity of infection (MOI)=0.3) were injected subcutaneously, and 10^7 diabetic NOD splenocytes were injected intravenously at the same time.
For sequencing, genomic DNA from explanted grafts was extracted with genome DNA midi prep kits, and the gRNA region was amplified from genomic DNA using established protocols.
Selection pressure (i.e., autoimmune attack) on transplanted NIT-1 cells was maximized by waiting until NOD.scid mice had become severely hyperglycemic (˜60 days, marked by the arrow) as shown in FIG. 4. Even after the blood glucose of one recipient NOD.scid mouse had reached approximately 500 mg/dL, approximately 50,000 cells from the remaining graft could be isolated. gRNAs were amplified from the genome DNA of the graft and surveyed by mini-seq (low-depth sequencing).
Since the GeCKO library (A library) only contain approximately 60,000 unique gRNAs, 10^6-10^7 sequencing reads was sufficient to cover the whole library and to achieve statistical significance. Typically, one high throughput sequencing reaction using the second generation Illumina system (e.g. NextSeq 500) can yield ˜150 millions of sequence reads, so multiple samples from different grafts were barcoded, mixed and sequenced together, thus greatly reducing sequencing costs.
The sequencing data was de-barcoded and then analyzed by bioinformatics analysis. Established analysis tools such as HiTSelect or MAGeCK were used for gRNA enrichment analysis. In sum, the ability to amplify, sequence and sub-clone gRNAs after in vivo selection allowed identification of genes whose suppression improved beta cell survival.
As expected with the high stringency selection, only 13 unique gRNAs that target 12 genes out of >60,000 gRNAs present in pre-implantation cells were identified. The number of times the gRNA was present in sequence (count), the frequency of the gRNA in the total reads, and the gene targeted by the gRNA are shown in Table 2. Two different gRNAs targeting Menl were found in the screen. The target genes in Table 2 encode for mouse SEQ ID Nos: 11-22 in Table 1, and the known human equivalents of these gene products are SEQ ID Nos: 1-10 in Table 1.
With “SEQ ID No: 23: gRNA targeting mouse Men1, sequence CACGCCCGAGCTGTCCAGTT (listed as DNA, chemistry not fully specified)” the “Count (number of times the gRNA was present in sequence)” value (“Count” for short) was 4919 and the “Frequency (% of total reads)” value was 16.34 % of total reads. For “SEQ ID No: 24: gRNA targeting mouse Hivep2, sequence TACGCACTCATACTGATGTT (listed as DNA, chemistry not fully specified)”, the “Count” value was 4073 and the “Frequency (% of total reads)” value was 13.53 % of total reads. With “SEQ ID No: 25: gRNA targeting mouse Rnls, sequence CTACTCCTCTCGCTATGCTC (listed as DNA, chemistry not fully specified)” the “Count” value was 3810 and the “Frequency (% of total reads)” value was 12.66 % of total reads. In the case of “SEQ ID No: 26: gRNA targeting mouse Lgsn, sequence TGCAACCGCGAACCCTTACC (listed as DNA, chemistry not fully specified)”, the “Count” value was 3252 and the “Frequency (% of total reads)” value was 10.80 % of total reads. For “SEQ ID No: 27: gRNA targeting mouse GCN1 (Gcn1l1), sequence GCTTGACACTGCATCGATAT (listed as DNA, chemistry not fully specified)”, the “Count” value was 3228 and the “Frequency (% of total reads)” value was 10.72 % of total reads. In the case of “SEQ ID No: 28: gRNA targeting mouse Gm3604, sequence ACTTTCGTATACAGATACTG (listed as DNA, chemistry not fully specified)”, the “Count” value was 3226 and the “Frequency (% of total reads)” value was 10.72 % of total reads. For “SEQ ID No: 29: gRNA targeting mouse Plin4, sequence CTGCCTCCTTAGTTCCGACA (listed as DNA, chemistry not fully specified)”, the “Count” value was 2529 and the “Frequency (% of total reads)” value was 8.40 % of total reads. For “SEQ ID No: 30: gRNA targeting mouse Med11, sequence TTTCACGCTCGATATCCTCC (listed as DNA, chemistry not fully specified)”, the “Count” value was 1346 and the “Frequency (% of total reads)” value was 4.47 % of total reads. “SEQ ID No: 31: gRNA targeting mouse Tgm6, sequence CATCGGTGGCTGGGTCCTCC (listed as DNA, chemistry not fully specified)” was tested, and the “Count” value was 1225 and the “Frequency (% of total reads)” value was 4.07 % of total reads. With “SEQ ID No: 32: gRNA targeting mouse Zbed3, sequence GCGCGAGGCGGCCCTAATGC (listed as DNA, chemistry not fully specified)” the “Count” value was 1160 and the “Frequency (% of total reads)” value was 3.85 % of total reads. For “SEQ ID No: 33: second gRNA targeting mouse Men1, sequence GCTGTATGACCTCGGACATC (listed as DNA, chemistry not fully specified)”, the “Count” value was 702 and the “Frequency (% of total reads)” value was 2.33 % of total reads. With “SEQ ID No: 34: gRNA targeting mouse Olfr911-ps1, sequence CTTCAAATGAGATCCACTGC (listed as DNA, chemistry not fully specified)” the “Count” value was 503 and the “Frequency (% of total reads)” value was 1.67 % of total reads. For “SEQ ID No: 35: gRNA targeting mouse Grm2, sequence GCGGCATAACGCCACACCCG (listed as DNA, chemistry not fully specified)”, the “Count” value was 131 and the “Frequency (% of total reads)” value was 0.44 % of total reads.

Each compound was assayed on NIT-1 beta cells (assay: Thapsigargin-induced ER stress, cell viability by MTT assay). Details: control NIT-1 cells, thapsigargin at different dosages, 3 days.
Format: cell-based, mouse
Source text: NIT-1 beta cells were genetically modified at two genes—1) Rnls; and 2) Zbed3 with CRISPR/Cas9 and guide RNAs (gRNAs) targeting Rnls and Zbed3, respectively. The modified NIT-1 cells had reduced expression of renalase (Rnls mutants) or zinc finger BED domain-containing protein 3 (Zbed3 mutants). ER stress was induced by thapsigargin, which blocks the sarco/endoplasmic reticulum Ca^2+-ATPase (SERCA) pump on the ER, thus depleting calcium from the ER and leading to misfolding of proteins in ER and eventually ER stress induced cell death. All cells were treated with thapsigargin for 3 days, and cell viability was evaluated by a standard MTT assay (see Mosmann T, J Immunol Methods 65(1-2):55-63 (1983)). […] Thus, inhibiting expression of the Rnls or Zbed3 protected beta cells from cell death induced by ER stress. See FIG. 8 (Rnls) and FIG. 9 (Zbed3).
In the case of C/C=C(/C)C(=O)O[C@H]1C(C)=C2[C@H]([C@@H]1OC(=O)CCCCCCC)[C@@](C)(OC(C)=O)C[C@H](OC(=O)CCC)[C@@]1(O)[C@H]2OC(=O)[C@@]1(C)O [thapsigargin], the “beta cell death (cell viability, MTT)” value was “induced beta cell death”.

What follows are compounds tested on NIT-1 cells (assay: Co-culture of NIT-1 cells with NOD splenocytes, active caspase 3 staining). Details: 24 hours, 50 splenocytes:1 NIT-1 cell, NIT-1 lines stably expressing gRNA, FIG. 7.
Format: cell-based, mouse
Experimental: FIGS. 6A-6C show are in vitro co-culture system for studying NIT-1 cell death by NOD splenocytes. […] The ratios represent ratios of splenocytes to NIT-1 cells. For example, 50:1 indicates 50-times more splenocytes than NIT-1 cells, while 0:1 indicates NIT-1 cells cultured without splenocytes. P<0.0001=****.
NIT-1 cells were incubated for 24 hours with splenocytes at a ratio of 50 splenocytes:1 NIT-1 cell. P<0.05=*; P<0.01=**, and P<0.001=***.
There is little cell death over 24 hours of NIT-1 cells not co-cultured with NOD splenocytes (0:1 ratio of splenocytes to NIT-1 cells in FIG. 6B), as evidenced by weak staining of active caspase-3. In contrast, NIT-1 cells co-cultured with a high ratio of NOD splenocytes (50:1 ratio of splenocytes to NIT-1 cells in FIG. 6B) show high cell death, as evidenced by strong caspase-3 activity. […] This model can be used to study whether inhibiting or suppressing expression of target genes blocks or inhibits the ability of NOD splenocytes to mediate NIT-1 cell death over time.
In the case of “SEQ ID No: 23: gRNA targeting mouse Men1, sequence CACGCCCGAGCTGTCCAGTT (listed as DNA, chemistry not fully specified)”, the “NIT-1 cell death mediated by NOD splenocytes (activated caspase 3)” value was “significantly decreased”. For “SEQ ID No: 33: second gRNA targeting mouse Men1, sequence GCTGTATGACCTCGGACATC (listed as DNA, chemistry not fully specified)”, the “NIT-1 cell death mediated by NOD splenocytes (activated caspase 3)” value was “significantly decreased”.

From patent publication US12545895B2, “Protection of beta cells from immune attack” (Joslin Diabetes Center, priority 2017, dated 2026)
